Results reported in US20100286219A1, “1, 3-Dihydroimidazoles for Treating Cardiovascular Disorders” (BIAL - PORTELA & CA S.A., priority 2007, published 2010).

Target: T1, human DβH (Homo sapiens, UniProt P09172)
T1 construct: endogenous in cells; host or cells: SK-N-SH cells
T1 sequence (P09172 1-617): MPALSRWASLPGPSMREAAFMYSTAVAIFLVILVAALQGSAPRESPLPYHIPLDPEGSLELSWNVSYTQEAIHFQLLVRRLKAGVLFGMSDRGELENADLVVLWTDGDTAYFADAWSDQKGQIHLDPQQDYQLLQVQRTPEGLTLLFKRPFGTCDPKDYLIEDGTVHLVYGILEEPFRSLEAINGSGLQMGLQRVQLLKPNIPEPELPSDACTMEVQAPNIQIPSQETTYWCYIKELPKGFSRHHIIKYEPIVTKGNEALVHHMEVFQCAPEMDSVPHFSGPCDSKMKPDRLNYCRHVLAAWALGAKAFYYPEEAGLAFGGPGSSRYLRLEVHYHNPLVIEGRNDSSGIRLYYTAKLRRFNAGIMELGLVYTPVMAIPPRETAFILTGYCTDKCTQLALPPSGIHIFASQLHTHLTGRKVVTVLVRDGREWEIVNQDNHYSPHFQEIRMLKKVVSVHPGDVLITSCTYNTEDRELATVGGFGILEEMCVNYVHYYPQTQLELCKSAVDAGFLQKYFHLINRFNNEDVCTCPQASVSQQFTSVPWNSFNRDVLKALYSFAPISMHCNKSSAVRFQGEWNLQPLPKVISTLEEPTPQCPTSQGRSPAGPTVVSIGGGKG
Assay: DβH activity in SK-N-SH cells (β-hydroxylation of dopamine to noradrenaline)
Type: cell-based
Conditions: for DβH activity, Mean ± SEM, % of control: compound 5 μM; for inhibition of DβH activity (in words): as listed in Table 1, 5 μM; for IC50 against human DβH activity (in words): concentration-dependent decrease in β-hydroxylation of dopamine

DβH activity, Mean ± SEM, % of control	inhibition of DβH activity (in words)	IC50 against human DβH activity (in words)	Structure (SMILES)
99.4 ± 2.8 % of control	–	–	COc1ccc2c(c1)C[C@@H](n1c(CCN)c[nH]c1=S)CS2.Cl (racemic) [Compound 30, (R,S)-5-(2-aminoethyl)-1-(6-methoxythiochroman-3-yl)-1,3-dihydroimidazole-2-thione hydrochloride]
27.3 ± 0.4 % of control	–	–	Cl.NCCc1c[nH]c(=S)n1[C@H]1CSc2ccc(O)cc2C1 (racemic) [Compound 31, (R,S)-5-(2-aminoethyl)-1-(6-hydroxythiochroman-3-yl)-1,3-dihydroimidazole-2-thione hydrochloride]
–	markedly inhibit	low nM range	Cl.NCCc1c[nH]c(=S)n1[C@H]1CCc2c(F)cc(F)cc2C1 [Compound 2, (S)-5-(2-aminoethyl)-1-(5,7-difluoro-1,2,3,4-tetrahydronaphthalen-2-yl)-1,3-dihydroimidazole-2-thione hydrochloride]
–	markedly inhibit	low nM range	Cl.NCc1c[nH]c(=S)n1[C@H]1COc2c(F)cc(F)cc2C1 [Compound 3, (R)-5-aminomethyl-1-(6,8-difluorochroman-3-yl)-1,3-dihydroimidazole-2-thione hydrochloride]
–	markedly inhibit	–	Cl.NCCCc1c[nH]c(=S)n1[C@H]1CCc2c(F)cc(F)cc2C1 [Compound 5, (S)-5-(3-aminopropyl)-1-(5,7-difluoro-1,2,3,4-tetrahydronaphthalen-2-yl)-1,3-dihydroimidazole-2-thione hydrochloride]
–	markedly inhibit	–	Cl.NCCc1c[nH]c(=S)n1[C@H]1COc2c(F)cccc2C1 [Compound 6, (R)-5-(2-aminoethyl)-1-(8-fluorochroman-3-yl)-1,3-dihydroimidazole-2-thione hydrochloride]
8.0 ± 0.1 % of control	markedly inhibit	–	Cl.NCCc1c[nH]c(=S)n1[C@H]1COc2ccc(F)cc2C1 [Compound 7, (R)-5-(2-aminoethyl)-1-(6-fluorochroman-3-yl)-1,3-dihydroimidazole-2-thione hydrochloride]
–	markedly inhibit	–	Cl.NCCc1c[nH]c(=S)n1[C@H]1COc2cc(F)c(F)cc2C1 [Compound 8, (R)-5-(2-aminoethyl)-1-(6,7-difluorochroman-3-yl)-1,3-dihydroimidazole-2-thione hydrochloride]
–	markedly inhibit	–	Cl.NCCc1c[nH]c(=S)n1[C@H]1COc2c(cc(F)c(F)c2F)C1 [Compound 10, (R)-5-(2-aminoethyl)-1-(6,7,8-trifluorochroman-3-yl)-1,3-dihydroimidazole-2-thione hydrochloride]
3.0 ± 0.5 % of control	markedly inhibit	–	Cl.NCCc1c[nH]c(=S)n1[C@H]1COc2ccccc2C1 [Compound 12, (R)-5-(2-aminoethyl)-1-chroman-3-yl-1,3-dihydroimidazole-2-thione hydrochloride]
0.0 ± 0.6 % of control	markedly inhibit	–	Cl.NCCc1c[nH]c(=S)n1[C@H]1COc2ccc(O)cc2C1 [Compound 16, (R)-5-(2-aminoethyl)-1-(6-hydroxychroman-3-yl)-1,3-dihydroimidazole-2-thione hydrochloride]
–	markedly inhibit	–	COc1cccc2c1OC[C@H](n1c(CCN)c[nH]c1=S)C2.Cl [Compound 19, (R)-5-(2-aminoethyl)-1-(8-methoxychroman-3-yl)-1,3-dihydroimidazole-2-thione hydrochloride]
0.0 ± 1.9 % of control	markedly inhibit	–	Cl.NCc1c[nH]c(=S)n1[C@H]1COc2ccccc2C1 [Compound 24, (R)-5-aminomethyl-1-chroman-3-yl-1,3-dihydroimidazole-2-thione hydrochloride]
–	markedly inhibit	–	Cl.Oc1ccc2c(c1)C[C@@H](n1c(CCNCc3ccccc3)c[nH]c1=S)CO2 [Compound 26, (R)-5-(2-Benzylaminoethyl)-1-(6-hydroxychroman-3-yl)-1,3-dihydroimidazole-2-thione hydrochloride]
–	markedly inhibit	–	CNCCc1c[nH]c(=S)n1[C@H]1COc2c(F)cc(F)cc2C1.Cl [Compound 28, (R)-1-(6,8-Difluorochroman-3-yl)-5-(2-methylaminoethyl)-1,3-dihydroimidazole-2-thione hydrochloride]
–	markedly inhibit	–	CNCCc1c[nH]c(=S)n1[C@H]1COc2ccccc2C1.Cl [Compound 29, (R)-1-Chroman-3-yl-5-(2-methylaminoethyl)-1,3-dihydroimidazole-2-thione hydrochloride]
